Assay results reported in US20240270701A1, “BETA ADRENERGIC AGONIST AND METHODS OF USING THE SAME” (Curasen Therapeutics, Inc., priority 2021, published 2024).
Where two headings read alike, the source gives them in different places.

Legend:
[1] = target: T1, B1-AR (Homo sapiens, UniProt P08588); assay: cAMP Gs dynamic HTRF assay, cells expressing beta-adrenergic receptor (CHO-K1), B1-AR; assay type: cell-based; details: for EC50: read-out: pEC50 [B1-AR] (converted); for Emax: read-out: Emax (% iso) (%) [B1-AR]
T1 construct: expressed in transfected cells; host or cells: CHO-K1
Experimental: (§1) cAMP homogeneous time-resolved fluorescence (HTRF): experimental methods. Compound efficacy is determined using the cAMP Gs dynamic HTRF assay (Cisbio, catalog #62AM4PEC) largely following the manufacturer's instructions, also detailed below.
(§2) Standard serial dilution curves are 10-point, 5-fold dilutions starting from a highest concentration of 10 μM. Controls present on every assay plate are 0.1% DMSO (vehicle control), 1 μM isoproterenol (full beta-adrenergic agonist control) and […] xamoterol (partial beta-adrenergic agonist control). […] Assay plates are centrifuged at 500×g for 10 seconds. Compounds and IBMX are prepared at 2× final dose to compensate for addition of cells.
(§3) Cell preparation: 1× stimulation buffer, washing PBS (Dulbecco's phosphate-buffered saline, − Mg − Ca; Caisson Labs, catalog #PBL01), assay PBS (Dulbecco's phosphate-buffered saline, + Mg, + Ca; Caisson Labs, catalog #PBL02) and Versene (0.02% EDTA disodium salt solution in PBS without calcium or magnesium; Caisson Labs, catalog #EDL01) are pre-warmed to 37° C. Cells expressing beta-adrenergic receptor were washed in washing PBS to remove growth medium and then released from the surface by incubating with Versene for 5-10 minutes at 37° C. Cells are harvested using assay PBS, counted manually by hemocytometer or by an automated cell counter, pelleted by centrifugation (200×g, 5 minutes) and resuspended in 37° C. 1× stimulation buffer to a final density of 1.5×10^6 cells/mL. 5 μL of the suspended cell solution (7500 cell total) are added to all wells of the 384 well assay plate, the assay plate was covered with an Axygen® plate seal (Corning PCR-SP) and incubated in a humidified 37° C. environment supplemented with 5% CO2 for 30 minutes.
(§4) HTRF reagent addition, reading and data analysis: After 30 minutes of cell stimulation with test compound, the assay plates are centrifuged at 500×g for 10 seconds, and incubation was stopped with the addition of 5 μL cAMP-D2 acceptor, diluted 1:21 in detection and lysis buffer 2 (Cisbio 62CL2FDF) was added to all cells. Subsequently, 5 μL Anti-cAMP-Eu Donor, diluted 1:21 in detection and lysis buffer 2, was added to cells. Plates were sealed and reactions gently ‘vortexed’ at 900 rpm on a Heidolph Titramax 1000 for at least 30 minutes at room temperature. Plates are centrifuged again at 500×g for 10 seconds, and HTRF was measured using a Tecan Spark plate reader at 50 flashes per well. […] Potency estimates (EC50 and pEC50) are derived from the four-parameter nonlinear regression of the concentration-effect curve and an estimate of relative efficacy is determined by comparing the magnitude of the test compound HTRF signal window (min−max dose) with the signal window of the full agonist control, isoproterenol.

[2] = target: T2, B2-AR (Homo sapiens, UniProt P07550); assay: cAMP Gs dynamic HTRF assay, cells expressing beta-adrenergic receptor (CHO-K1), B2-AR; assay type: cell-based; details: for EC50: read-out: pEC50 [B2-AR] (converted); for Emax: read-out: Emax (% iso) (%) [B2-AR]
T2 construct: expressed in transfected cells; host or cells: CHO-K1
Experimental: as §1, §2, §3, §4

[3] = relative to full agonist isoproterenol
[4] = CHO-K1 cells, relative to full agonist isoproterenol
[5] = CHO-K1, CHO-K1 cells, relative to full agonist isoproterenol

T2 sequence (P07550 whole entry, species assumed): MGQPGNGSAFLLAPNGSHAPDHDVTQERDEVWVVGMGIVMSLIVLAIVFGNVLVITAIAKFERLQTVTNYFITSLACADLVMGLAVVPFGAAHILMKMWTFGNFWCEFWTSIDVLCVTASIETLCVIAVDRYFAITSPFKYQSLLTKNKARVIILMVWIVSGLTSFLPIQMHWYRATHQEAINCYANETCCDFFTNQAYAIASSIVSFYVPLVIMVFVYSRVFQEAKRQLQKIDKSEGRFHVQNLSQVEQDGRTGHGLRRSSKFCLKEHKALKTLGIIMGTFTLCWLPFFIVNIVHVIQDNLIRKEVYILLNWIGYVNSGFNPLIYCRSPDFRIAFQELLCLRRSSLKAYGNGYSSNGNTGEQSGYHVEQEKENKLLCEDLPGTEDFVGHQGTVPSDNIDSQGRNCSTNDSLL
T1 sequence (P08588 whole entry, species assumed): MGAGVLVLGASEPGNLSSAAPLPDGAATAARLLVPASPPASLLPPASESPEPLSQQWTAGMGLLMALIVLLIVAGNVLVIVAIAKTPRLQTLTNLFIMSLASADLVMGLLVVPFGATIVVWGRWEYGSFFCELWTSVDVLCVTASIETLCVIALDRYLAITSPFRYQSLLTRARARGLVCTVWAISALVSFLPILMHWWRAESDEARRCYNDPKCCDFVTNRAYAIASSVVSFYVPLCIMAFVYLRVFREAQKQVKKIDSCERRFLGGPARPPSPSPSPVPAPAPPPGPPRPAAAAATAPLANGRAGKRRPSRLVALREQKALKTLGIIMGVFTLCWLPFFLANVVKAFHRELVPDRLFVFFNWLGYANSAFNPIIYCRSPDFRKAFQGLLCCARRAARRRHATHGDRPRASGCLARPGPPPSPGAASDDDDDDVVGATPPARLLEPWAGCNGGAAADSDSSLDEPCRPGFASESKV

| Structure (SMILES) | EC50 ([1]; cAMP HTRF) [nM] | Emax [1, 3] [%] | EC50 ([2]; CHO-K1 cells, cAMP HTRF) [nM] | Emax [2, 4] [%] | Emax [2, 5] [%] | pEC50 [B1-AR] ([1]; cAMP HTRF) | Emax (% iso) (%) [B1-AR] [1, 3] | pEC50 [B2-AR] ([2]; CHO-K1 cells, cAMP HTRF) | Emax (% iso) (%) [B2-AR] [2, 4] |
| --- | --- | --- | --- | --- | --- | --- | --- | --- | --- |
| COc1ccnc2ccc([C@@H](O)CNC(C)(C)C)cc12 [I-74] | 100 to 1000 | < 50 | > 1000 |  | < 50 |  |  |  |  |
| CC[C@@H](C)NC[C@H](O)c1cc(F)cc2[nH]ncc12 [I-41] | < 10 | > 90 | < 10 | > 90 |  |  |  |  |  |
| CC(C)(C)NC[C@H](O)c1ccc(N)nn1 [I-142] | 10 to 100 | > 90 | 10 to 100 |  | > 90 |  |  |  |  |
| Cc1c(F)cc([C@@H](O)CNC(C)(C)C)c2cn[nH]c12 [I-62] | < 10 | 70 to 90 | < 10 | 70 to 90 |  |  |  |  |  |
| CCC(C)(CC)NC[C@H](O)c1ccc(F)c2[nH]ncc12 [I-28] | < 10 | > 90 | < 10 |  | > 90 |  |  |  |  |
| CC(C)c1cc([C@@H](O)CNC(C)(C)C)c2cn[nH]c2c1 [I-104] | > 1000 | 70 to 90 | 100 to 1000 |  | 70 to 90 |  |  |  |  |
| Cc1nc(N)ncc1[C@@H](O)CNC(C)(C)C [I-144] | > 1000 | 70 to 90 | 10 to 100 |  | > 90 |  |  |  |  |
| Cc1ncccc1[C@@H](O)CNCC(C)C [I-183] | > 1000 | < 50 | > 1000 |  | 50 to 70 |  |  |  |  |
| Cc1n[nH]c2cccc([C@@H](O)CNC3CC3)c12 [I-167] | > 1000 | 70 to 90 | 100 to 1000 |  | 70 to 90 |  |  |  |  |
| C[C@H](NC[C@H](O)c1ccc(Cl)c2[nH]ncc12)C(C)(C)C [I-3] | 100 to 1000 | 50 to 70 | < 10 |  | 70 to 90 |  |  |  |  |
| Cc1nc(N)c(F)cc1[C@H](CO)NC(C)(C)C [I-180] | > 1000 | < 50 | > 1000 | < 50 |  |  |  |  |  |
| Cn1ncc2c([C@@H](O)CNC(C)(C)C)cc(F)cc21 [I-84] |  |  |  |  |  | B (B=>7-8) | B (B=>70-90%) | A (A=>8) | B (B=>70-90%) |
| CC(C)(NC[C@H](O)c1cccc2[nH]nc(F)c12)C1CC1 [I-20] | < 10 | > 90 | < 10 |  | > 90 |  |  |  |  |
| Cc1nc(N)c(Cl)cc1[C@H](CO)NC1CC(F)(F)C1 [I-185] | > 1000 | < 50 | > 1000 | < 50 |  |  |  |  |  |
| CCC(C)(C)NC[C@H](O)c1cccc2[nH]nc(Cl)c12 [I-45] | < 10 | 70 to 90 | < 10 |  | 70 to 90 |  |  |  |  |
| Cc1nc(N)c(Cl)cc1[C@@H](O)CNC(CO)CO [I-145] | > 1000 | 70 to 90 | > 1000 | 70 to 90 |  |  |  |  |  |
| Cc1ncccc1[C@@H](O)CNC(C)(C)CO [I-176] | > 1000 | 50 to 70 | 100 to 1000 |  | 70 to 90 |  |  |  |  |
| CC(C)(C)NC[C@H](O)c1cnc(N)s1 [I-86] | > 1000 | 70 to 90 | 100 to 1000 |  | 70 to 90 |  |  |  |  |
| CC(C)(C)NC[C@H](O)c1cc(F)cc2[nH]cnc12 [I-131] | 10 to 100 | > 90 | 10 to 100 |  | 70 to 90 |  |  |  |  |
| CC(C)(C)CNC[C@H](O)c1ccc(F)c2[nH]ncc12 [I-87] | 100 to 1000 | 50 to 70 | 10 to 100 | 70 to 90 |  |  |  |  |  |
| Cn1ncc2c([C@@H](O)CNC(C)(C)C)ccc(F)c21 [I-56] | 10 to 100 | 50 to 70 | < 10 | 50 to 70 |  |  |  |  |  |
| CC(C)NC[C@H](O)c1cncc2[nH]ncc12 [I-159] | 100 to 1000 | 70 to 90 | 100 to 1000 | > 90 |  |  |  |  |  |
| CNc1ncc([C@@H](O)CNC(C)(C)C)cn1 [I-70] | 100 to 1000 | 70 to 90 | 10 to 100 | 50 to 70 |  |  |  |  |  |
| CCC(C)(C)NC[C@H](O)c1cncc2[nH]ncc12 [I-53] | 100 to 1000 | 70 to 90 | 10 to 100 | 70 to 90 |  |  |  |  |  |
| CC(C)(C)NC[C@H](O)c1ccc2ncncc2c1 [I-77] | > 1000 | 50 to 70 | 100 to 1000 |  | 50 to 70 |  |  |  |  |
| Cc1nc(N)ccc1[C@@H](O)CNC(C)(C)C [I-150] | 10 to 100 | > 90 | < 10 |  | > 90 |  |  |  |  |
| CCC(C)(C)NC[C@H](O)c1cc(F)cc2[nH]ncc12 [I-51] | < 10 | 70 to 90 | < 10 | > 90 |  |  |  |  |  |
| O[C@@H](CNC1CCC1)c1cccc2[nH]cc(F)c12 [I-113] | < 10 | > 90 | 10 to 100 |  | > 90 |  |  |  |  |
| CC(C)(C)NC[C@H](O)c1cc(C2CC2)cc2[nH]ncc12 [I-103] | > 1000 | 50 to 70 | 10 to 100 |  | 50 to 70 |  |  |  |  |
| CCC(C)(C)NC[C@H](O)c1cccnc1C [I-165] | 100 to 1000 | 70 to 90 | 100 to 1000 |  | 70 to 90 |  |  |  |  |

The next lines start with results.

| EC50 ([1]; cAMP HTRF) [nM] | Emax [1, 3] [%] | EC50 ([2]; CHO-K1 cells, cAMP HTRF) [nM] | Emax [2, 4] [%] | Structure (SMILES) | Emax [2, 5] [%] | pEC50 [B1-AR] ([1]; cAMP HTRF) | Emax (% iso) (%) [B1-AR] [1, 3] | pEC50 [B2-AR] ([2]; CHO-K1 cells, cAMP HTRF) | Emax (% iso) (%) [B2-AR] [2, 4] |
| --- | --- | --- | --- | --- | --- | --- | --- | --- | --- |
| < 10 | > 90 | < 10 | > 90 | CC1(NC[C@H](O)c2cccc3[nH]ncc23)CCC1 [I-128] |  |  |  |  |  |
| 10 to 100 | 70 to 90 | < 10 | 70 to 90 | Cc1n[nH]c2cccc([C@@H](O)CNC3(C)CCC3)c12 [I-168] |  |  |  |  |  |
| 100 to 1000 | 70 to 90 | 100 to 1000 | > 90 | Cn1ccc(CNC[C@H](O)c2cccc3[nH]nc(F)c23)n1 [I-78] |  |  |  |  |  |
| 10 to 100 | 70 to 90 | < 10 | > 90 | CC1(CNC[C@H](O)c2ccc(F)c3[nH]ncc23)CC1 [I-81] |  |  |  |  |  |
| < 10 | > 90 | < 10 | > 90 | CC(C)NC[C@H](O)c1cccc2[nH]nc(Cl)c12 [I-101] |  |  |  |  |  |
| < 10 | 70 to 90 | < 10 | > 90 | O[C@@H](CNC1CCC1)c1ccc(F)c2[nH]ncc12 [I-137] |  |  |  |  |  |
| 10 to 100 | 70 to 90 | < 10 | 70 to 90 | Cc1n[nH]c2cc(F)cc([C@@H](O)CNC(C)(C)C)c12 [I-61] |  |  |  |  |  |
| < 10 | 70 to 90 | < 10 | > 90 | CC1(NC[C@H](O)c2cccc3[nH]nc(Cl)c23)CCC1 [I-96] |  |  |  |  |  |
| 10 to 100 | > 90 | < 10 | > 90 | CC[C@H](C)NC[C@H](O)c1cccc2[nH]ncc12 [I-24] |  |  |  |  |  |
| < 10 | > 90 | < 10 | > 90 | CC1(NC[C@H](O)c2cccc3[nH]nc(F)c23)CCC1 [I-130] |  |  |  |  |  |
| < 10 | 70 to 90 | < 10 | > 90 | CC(C)[C@@H](C)NC[C@H](O)c1cccc2[nH]ncc12 [I-33] |  |  |  |  |  |
| > 1000 | < 50 | > 1000 | 50 to 70 | Cc1ncccc1[C@@H](O)CNC1CC(C)(C)C1 [I-182] |  |  |  |  |  |
| 100 to 1000 | 70 to 90 | 10 to 100 | 70 to 90 | Cc1n[nH]c2cccc([C@@H](O)CNC(C)C)c12 [I-170] |  |  |  |  |  |
| < 10 | > 90 | < 10 | > 90 | CC(C)(NC[C@H](O)c1ccc(F)c2[nH]ncc12)C1CC1 [I-21] |  |  |  |  |  |
